In article PMC10584170, “Machine learning-based phenotypic imaging to characterise the targetable biology of Plasmodium falciparum male gametocytes for the development of transmission-blocking antimalarials” (PLOS Pathogens, 2023):

Assays:
[1] = test system: P. falciparum male gametocytes; experiment: P. falciparum Dual Gamete Formation Assay (PfDGFA), male readout (exflagellation); assay type: cell-based, Plasmodium falciparum NF54; conditions: for Average inhibition male (%): average of replicates; for % inhibition male (individual replicates) R1: replicate R1; for % inhibition male (individual replicates) R3: replicate R3; for % inhibition male (individual replicates) R4: replicate R4; for Activity: hit = >50% inhibition in male or female readout in at least 3 replicates, 0 = no class assigned
Method in brief: (§1)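 NF54 mature gametocytes (d14), cpd 24 h 37°C hypoxic gas; trigger: xanthurenic acid ookinete medium + Cy3 anti-Pfs25, 4°C 4 min → 28°C 4 min. Male: exflagellation centres, brightfield x6. Female: Pfs25+ gametes, fluorescence, +24 h 28°C dark.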

[2] = test system: P. falciparum female gametocytes; experiment: P. falciparum Dual Gamete Formation Assay (PfDGFA), female readout (Pfs25-positive female gametes); assay type: cell-based, Plasmodium falciparum NF54; conditions: for Average inhibition female (%): average of replicates; for % inhibition female (individual replicates) R1: replicate R1; for % inhibition female (individual replicates) R3: replicate R3; for % inhibition female (individual replicates) R4: replicate R4
Method in brief: as §1

[3] = 2µM, 24h preincubation with gametocytes
[4] = 2µM, 24h preincubation with gametocytes prior to induction of gametogenesis
[5] = 2µM, 24h preincubation, number of replicates with >50% inhibition in the male readout
[6] = 2µM, 24h preincubation, number of replicates with >50% inhibition in the female readout
[7] = 2µM, 24h preincubation, hits selected on >50% inhibition in the male readout across replicates
[8] = PfDGFA at 2µM, 24h preincubation
[9] = 2µM, 24h preincubation, hits selected on >50% inhibition in the female readout across replicates
[10] = PfDGFA at 2µM, 24h preincubation with gametocytes
[11] = PfDGFA at 2µM, 24h preincubation with gametocytes prior to induction of gametogenesis

CS(=O)(=O)O.FC(F)(F)COc1ccc2ccccc2c1CNCCCCCCNCc1c(OCC(F)(F)F)ccc2ccccc12 [TCMDC-137816]
Average inhibition male (%) [1, 3]: 91.3% | % inhibition male (individual replicates) R1 [1, 3]: 97.0% | % inhibition male (individual replicates) R3 [1, 3]: 82.6% | % inhibition male (individual replicates) R4 [1, 3]: 90.9% | Average inhibition female (%) [2, 3]: 42.8% | % inhibition female (individual replicates) R1 [2, 3]: 37.4% | % inhibition female (individual replicates) R3 [2, 3]: 26.9% | % inhibition female (individual replicates) R4 [2, 3]: 39.6%

N#Cc1ccc(Cn2ccc3c4c(N)nc(N)nc4ccc32)cc1 [TCMDC-137820]
Average inhibition male (%) [1, 4]: 57.5% | % inhibition male (individual replicates) R1 [1, 4]: 46.1% | % inhibition male (individual replicates) R3 [1, 4]: 51.2% | % inhibition male (individual replicates) R4 [1, 4]: 67.4% | HitlevelM [1, 5]: 3 | Average inhibition female (%) [2, 4]: 75.9% | % inhibition female (individual replicates) R1 [2, 4]: 77.9% | % inhibition female (individual replicates) R3 [2, 4]: 77.4% | % inhibition female (individual replicates) R4 [2, 4]: 70.8% | HitlevelF [2, 6]: 4

COc1cc(CNCCCCCCNCc2cc(OC)cc3ccccc23)c2ccccc2c1.CS(=O)(=O)O [TCMDC-137823]
Average inhibition male (%) [1, 4]: 27.1% | % inhibition male (individual replicates) R1 [1, 4]: 24.9% | % inhibition male (individual replicates) R3 [1, 4]: 12.3% | % inhibition male (individual replicates) R4 [1, 4]: 38.9% | HitlevelM [1, 7]: 0 | Activity [1, 8]: 0 | Average inhibition female (%) [2, 4]: 15.2% | % inhibition female (individual replicates) R1 [2, 4]: 16.9% | % inhibition female (individual replicates) R3 [2, 4]: 3.5% | % inhibition female (individual replicates) R4 [2, 4]: 20.5% | HitlevelF [2, 9]: 0

CCCCOc1cc(CNCCCCCCNCc2cc(OCCCC)cc3ccccc23)c2ccccc2c1.CS(=O)(=O)O [TCMDC-137824]
Average inhibition male (%) [1, 4]: 32.5% | % inhibition male (individual replicates) R1 [1, 4]: 29.7% | % inhibition male (individual replicates) R3 [1, 4]: -0.8% | % inhibition male (individual replicates) R4 [1, 4]: 46.2% | HitlevelM [1, 5]: 1 | Average inhibition female (%) [2, 4]: 23.5% | % inhibition female (individual replicates) R1 [2, 4]: 22.5% | % inhibition female (individual replicates) R3 [2, 4]: 5.4% | % inhibition female (individual replicates) R4 [2, 4]: 30.9% | HitlevelF [2, 6]: 0

COc1c(OC)c(OC)c2ccccc2c1CNCCCCCCNCc1c(OC)c(OC)c(OC)c2ccccc12.Cl [TCMDC-137827]
Average inhibition male (%) [1, 10]: 67.6% | % inhibition male (individual replicates) R1 [1, 10]: 64.0% | % inhibition male (individual replicates) R4 [1, 10]: 54.3% | HitlevelM ([1]; number of replicates with >50% inhibition in the male readout, 2µM): 3 | Average inhibition female (%) [2, 10]: 37.0% | % inhibition female (individual replicates) R1 [2, 10]: 45.3% | % inhibition female (individual replicates) R3 [2, 10]: 25.5% | % inhibition female (individual replicates) R4 [2, 10]: 33.3% | HitlevelF ([2]; number of replicates with >50% inhibition in the female readout, 2µM): 0

CCN(C)C(=O)n1ncc2c3c(N)nc(N)nc3ccc21 [TCMDC-137828]
% inhibition male (individual replicates) R1 [1, 11]: 33.9% | % inhibition male (individual replicates) R3 [1, 11]: 38.2% | % inhibition male (individual replicates) R4 [1, 11]: 21.2% | Average inhibition male (%) [1, 8]: 34.9% | % inhibition female (individual replicates) R1 [2, 11]: 0.36% | % inhibition female (individual replicates) R3 [2, 11]: -2.4% | % inhibition female (individual replicates) R4 [2, 11]: 3.1% | Average inhibition female (%) [2, 8]: -0.8%

COc1c(CNCCCCCCNCc2c(OC)c(OC)c3ccccc3c2OC)c(OC)c2ccccc2c1OC.CS(=O)(=O)O [TCMDC-137837]
Average inhibition male (%) [1, 4]: 26.0% | % inhibition male (individual replicates) R1 [1, 4]: 25.5% | % inhibition male (individual replicates) R3 [1, 4]: 24.6% | % inhibition male (individual replicates) R4 [1, 4]: 53.4% | HitlevelM [1, 7]: 1 | Activity [1, 8]: 0 | Average inhibition female (%) [2, 4]: 13.6% | % inhibition female (individual replicates) R1 [2, 4]: 13.3% | % inhibition female (individual replicates) R3 [2, 4]: 14.5% | % inhibition female (individual replicates) R4 [2, 4]: 16.6% | HitlevelF [2, 9]: 0

C#CCOc1ccc2ccccc2c1CNCCCCCCNCc1c(OCC#C)ccc2ccccc12.CS(=O)(=O)O [TCMDC-137838]
Average inhibition male (%) [1, 3]: 97.5% | % inhibition male (individual replicates) R1 [1, 3]: 98.4% | % inhibition male (individual replicates) R3 [1, 3]: 92.7% | % inhibition male (individual replicates) R4 [1, 3]: 100.9% | Average inhibition female (%) [2, 3]: 57.5% | % inhibition female (individual replicates) R1 [2, 3]: 37.7% | % inhibition female (individual replicates) R3 [2, 3]: 36.7% | % inhibition female (individual replicates) R4 [2, 3]: 72.5%

COc1cc2ccccc2c(OC)c1CCNCCCCNCCc1c(OC)cc2ccccc2c1OC.CS(=O)(=O)O [TCMDC-137842]
Average inhibition male (%) [1, 4]: 40.8% | % inhibition male (individual replicates) R1 [1, 4]: 35.9% | % inhibition male (individual replicates) R3 [1, 4]: -0.8% | % inhibition male (individual replicates) R4 [1, 4]: 68.2% | HitlevelM [1, 7]: 2 | Activity [1, 8]: 0 | Average inhibition female (%) [2, 4]: 13.3% | % inhibition female (individual replicates) R1 [2, 4]: 16.6% | % inhibition female (individual replicates) R3 [2, 4]: -7.2% | % inhibition female (individual replicates) R4 [2, 4]: 21.8% | HitlevelF [2, 9]: 0

C/C=C/COc1ccc2ccccc2c1CNCCCCCCCCNCc1c(OC/C=C/C)ccc2ccccc12.CS(=O)(=O)O.O [TCMDC-137844]
Average inhibition male (%) [1, 4]: 25.4% | % inhibition male (individual replicates) R1 [1, 4]: 38.1% | % inhibition male (individual replicates) R3 [1, 4]: 0.24% | % inhibition male (individual replicates) R4 [1, 4]: 61.8% | HitlevelM [1, 5]: 1 | Average inhibition female (%) [2, 4]: 23.4% | % inhibition female (individual replicates) R1 [2, 4]: 25.6% | % inhibition female (individual replicates) R3 [2, 4]: 6.4% | % inhibition female (individual replicates) R4 [2, 4]: 40.3% | HitlevelF [2, 6]: 0

CC(C)c1cc2c(ccc3nc(N)nc(N)c32)[nH]1 [TCMDC-137847]
Average inhibition male (%) [1, 4]: 0.8% | % inhibition male (individual replicates) R1 [1, 4]: 37.4% | % inhibition male (individual replicates) R3 [1, 4]: -19.2% | % inhibition male (individual replicates) R4 [1, 4]: -31.8% | HitlevelM [1, 7]: 0 | Activity [1, 8]: 0 | Average inhibition female (%) [2, 4]: 11.1% | % inhibition female (individual replicates) R1 [2, 4]: 19.6% | % inhibition female (individual replicates) R3 [2, 4]: 6.0% | % inhibition female (individual replicates) R4 [2, 4]: 11.3% | HitlevelF [2, 9]: 0

CCc1cc2c3c(N)nc(N)nc3ccc2n1CC [TCMDC-137851]
Average inhibition male (%) [1, 4]: -13.9% | % inhibition male (individual replicates) R1 [1, 4]: 35.0% | % inhibition male (individual replicates) R3 [1, 4]: -28.2% | % inhibition male (individual replicates) R4 [1, 4]: -58.5% | HitlevelM [1, 7]: 0 | Activity [1, 8]: 0 | Average inhibition female (%) [2, 4]: 9.4% | % inhibition female (individual replicates) R1 [2, 4]: 20.5% | % inhibition female (individual replicates) R3 [2, 4]: -5.1% | % inhibition female (individual replicates) R4 [2, 4]: 10.4% | HitlevelF [2, 9]: 0

Cl.Nc1nc(N)c2c(ccc3c2cnn3S(=O)(=O)N2CCCC2)n1 [TCMDC-137852]
% inhibition male (individual replicates) R1 [1, 11]: 28.2% | % inhibition male (individual replicates) R3 [1, 11]: -12.1% | % inhibition male (individual replicates) R4 [1, 11]: -13.1% | Average inhibition male (%) [1, 8]: 5.0% | % inhibition female (individual replicates) R1 [2, 11]: 0.4% | % inhibition female (individual replicates) R3 [2, 11]: -21.8% | % inhibition female (individual replicates) R4 [2, 11]: -7.9% | Average inhibition female (%) [2, 8]: -7.0%

Cl.Nc1nc(N)c2c(ccc3nn(S(=O)(=O)N4CCCC4)cc32)n1 [TCMDC-137854]
% inhibition male (individual replicates) R1 [1, 11]: 39.1% | % inhibition male (individual replicates) R3 [1, 11]: 32.8% | % inhibition male (individual replicates) R4 [1, 11]: 30.1% | Average inhibition male (%) [1, 8]: 33.2% | % inhibition female (individual replicates) R1 [2, 11]: -6.1% | % inhibition female (individual replicates) R3 [2, 11]: 12.6% | % inhibition female (individual replicates) R4 [2, 11]: -10.2% | Average inhibition female (%) [2, 8]: -1.3%

CCCn1cc2c(ccc3nc(N)nc(N)c32)n1 [TCMDC-137858]
% inhibition male (individual replicates) R1 [1, 11]: 0.8% | % inhibition male (individual replicates) R3 [1, 11]: -0.8% | % inhibition male (individual replicates) R4 [1, 11]: -25.8% | Average inhibition male (%) [1, 8]: 1.4% | % inhibition female (individual replicates) R1 [2, 11]: 9.1% | % inhibition female (individual replicates) R3 [2, 11]: -22.2% | % inhibition female (individual replicates) R4 [2, 11]: 2.7% | Average inhibition female (%) [2, 8]: -1.2%

CC(C)n1cc2c(ccc3nc(N)nc(N)c32)n1 [TCMDC-137865]
% inhibition male (individual replicates) R1 [1, 11]: 12.4% | % inhibition male (individual replicates) R3 [1, 11]: -22.8% | % inhibition male (individual replicates) R4 [1, 11]: -29.8% | Average inhibition male (%) [1, 8]: -10.2% | % inhibition female (individual replicates) R1 [2, 11]: 4.2% | % inhibition female (individual replicates) R3 [2, 11]: -9.2% | % inhibition female (individual replicates) R4 [2, 11]: -1.6% | Average inhibition female (%) [2, 8]: -0.07%

Nc1nc(N)c2c(Cl)c(N3CCOCC3)ccc2n1 [TCMDC-137868]
Average inhibition male (%) [1, 4]: -14.2% | % inhibition male (individual replicates) R1 [1, 4]: 5.7% | % inhibition male (individual replicates) R3 [1, 4]: -9.7% | % inhibition male (individual replicates) R4 [1, 4]: -52.5% | HitlevelM [1, 7]: 0 | Activity [1, 8]: 0 | Average inhibition female (%) [2, 4]: 8.8% | % inhibition female (individual replicates) R1 [2, 4]: 9.4% | % inhibition female (individual replicates) R3 [2, 4]: -3.6% | % inhibition female (individual replicates) R4 [2, 4]: -2.4% | HitlevelF [2, 9]: 0
